Measurements published in paper PMC6540952 (Chemical Science, 2019).

Molecular target: IP6K1 (Homo sapiens, UniProt Q92551)
Test: NMR kinase activity assay with [[…]6]InsP6, […] ATP
Assay type: biochemical

Sequence of IP6K1 (Q92551 whole entry): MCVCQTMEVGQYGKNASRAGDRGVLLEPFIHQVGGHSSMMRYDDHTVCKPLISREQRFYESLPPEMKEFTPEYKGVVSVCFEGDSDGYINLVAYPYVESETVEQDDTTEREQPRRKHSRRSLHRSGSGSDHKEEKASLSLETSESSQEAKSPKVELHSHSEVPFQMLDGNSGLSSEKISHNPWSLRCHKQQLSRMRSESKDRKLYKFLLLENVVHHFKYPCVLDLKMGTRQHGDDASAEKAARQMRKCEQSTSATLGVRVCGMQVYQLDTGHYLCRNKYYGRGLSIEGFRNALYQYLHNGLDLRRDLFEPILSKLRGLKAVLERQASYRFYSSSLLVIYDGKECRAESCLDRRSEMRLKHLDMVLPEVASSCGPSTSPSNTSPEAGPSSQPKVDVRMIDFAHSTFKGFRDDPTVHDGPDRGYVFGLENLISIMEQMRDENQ

- IC50: 2250 nM
Structure (SMILES): O=[N+]([O-])c1ccc(CNc2nc(NCc3cccc(C(F)(F)F)c3)nc3[nH]cnc23)cc1 [TNP]
